Data published in patent US9695155B2, “Herbicidal substituted pyrimidinyloxy benzene compounds” (E. I. DU PONT DE NEMOURS AND COMPANY, priority 2013, dated 2017).

Tests used:
winter barley = assay: Test D preemergence; assay type: in vivo, Hordeum vulgare
Procedure, shortened: (§1)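 Greenhouse herbicide screen. Sowing into silt loam for preemergence application; foliar application to 2–18 cm seedlings in potting mix for postemergence. 0–100 visual control rating after 7–21 d.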

spring barley = assay: Test D preemergence; assay type: in vivo, Hordeum vulgare
Procedure, shortened: as §1

bromegrass, downy = assay: Test D preemergence; assay type: in vivo, Bromus tectorum
Procedure, shortened: as §1

chamomile = assay: Test D postemergence; assay type: in vivo, Matricaria inodora
Procedure, shortened: as §1

green foxtail = assay: Test D preemergence; assay type: in vivo, Setaria viridis
Procedure, shortened: as §1

wild radish = assay: Test D postemergence; assay type: in vivo, Raphanus raphanistrum
Procedure, shortened: as §1

galium = assay: Test D preemergence; assay type: in vivo, Galium aparine
Procedure, shortened: as §1

canarygrass = assay: Test D preemergence; assay type: in vivo, Phalaris minor
Procedure, shortened: as §1

wild oat = assay: Test D postemergence; assay type: in vivo, Avena fatua
Procedure, shortened: as §1

[1] = 16 g ai/ha, scale 0 (no effect) to 100 (complete control)
[2] = 31 g ai/ha, scale 0 to 100 (0 no effect, 100 complete control)
[3] = 62 g ai/ha, scale 0 to 100 (0 no effect, 100 complete control)
[4] = 125 g ai/ha, scale 0 to 100 (0 no effect, 100 complete control)
[5] = 250 g ai/ha, scale 0 to 100 (0 no effect, 100 complete control)

Clc1cnc(Oc2ccccc2-n2cc(Cl)cn2)nc1 [Compound 3]
0: Plant response rating, Barley, Winter (winter barley; [1]) | Plant response rating, Barley, Winter (winter barley; 31 g ai/ha, scale 0-100) | Plant response rating, Barley, Winter (winter barley; 62 g ai/ha, scale 0-100) | Plant response rating, Barley, Spring (spring barley; [1]) | Plant response rating, Barley, Spring (spring barley; 31 g ai/ha, scale 0-100) | Plant response rating, Barley, Spring (spring barley; 62 g ai/ha, scale 0-100) | Plant response rating, Barley, Spring (spring barley; 125 g ai/ha, scale 0-100) | Plant response rating, Barley, Spring (spring barley; 250 g ai/ha, scale 0-100) | Plant response rating, Bromegrass, Downy (bromegrass, downy; [1]) | Plant response rating, Bromegrass, Downy (bromegrass, downy; 31 g ai/ha, scale 0-100) | Plant response rating, Bromegrass, Downy (bromegrass, downy; 62 g ai/ha, scale 0-100) | Plant response rating, Bromegrass, Downy (bromegrass, downy; 125 g ai/ha, scale 0-100) | Plant response rating, Bromegrass, Downy (bromegrass, downy; 250 g ai/ha, scale 0-100) | Plant response rating, Chamomile (chamomile; 16 g ai/ha, scale 0-100) | Plant response rating, Chamomile (chamomile; [2]) | Plant response rating, Chamomile (chamomile; [3]) | Plant response rating, Chamomile (chamomile; [4]) | Plant response rating, Chamomile (chamomile; [5]) | Plant response rating, Galium (galium; [1]) | Plant response rating, Galium (galium; 31 g ai/ha, scale 0-100) | Plant response rating, Canarygrass (canarygrass; [1]) | Plant response rating, Canarygrass (canarygrass; 31 g ai/ha, scale 0-100) | Plant response rating, Canarygrass (canarygrass; 62 g ai/ha, scale 0-100) | Plant response rating, Canarygrass (canarygrass; 125 g ai/ha, scale 0-100) | Plant response rating, Oat, Wild (wild oat; [2]) | Plant response rating, Oat, Wild (wild oat; [3]) | Plant response rating, Oat, Wild (wild oat; [4]) | Plant response rating, Oat, Wild (wild oat; [5])
70: Plant response rating, Radish, Wild (wild radish; 16 g ai/ha, scale 0-100) | Plant response rating, Galium (galium; 125 g ai/ha, scale 0-100) | Plant response rating, Oat, Wild (wild oat; 16 g ai/ha, scale 0-100)
10: Plant response rating, Barley, Winter (winter barley; 125 g ai/ha, scale 0-100) | Plant response rating, Foxtail, Green (green foxtail; [1]) | Plant response rating, Foxtail, Green (green foxtail; 62 g ai/ha, scale 0-100) | Plant response rating, Foxtail, Green (green foxtail; 125 g ai/ha, scale 0-100) | Plant response rating, Galium (galium; 62 g ai/ha, scale 0-100)
75: Plant response rating, Radish, Wild (wild radish; [5])
20: Plant response rating, Barley, Winter (winter barley; 250 g ai/ha, scale 0-100)
50: Plant response rating, Radish, Wild (wild radish; [4])
100: Plant response rating, Galium (galium; 250 g ai/ha, scale 0-100)
25: Plant response rating, Canarygrass (canarygrass; 250 g ai/ha, scale 0-100)
30: Plant response rating, Foxtail, Green (green foxtail; 250 g ai/ha, scale 0-100) | Plant response rating, Radish, Wild (wild radish; [2])
40: Plant response rating, Radish, Wild (wild radish; [3])
